Where a name gives a salt, the structure may show the parent alone.
System: NF-κB activation
Assay: Inhibitory activity against NF-κB activation, luciferase reporter assay under TNF-α stimulation
Type: cell-based, human
Conditions: HepG2 cells, TNF-α 40 ng/ml, 4 hours; for inhibition at 1 µg/mL / inhibition at 10 µg/mL: Homo sapiens, read-out: Inhibitory Ratio of NF-κ B Activation(%)
Method: Inhibitory activity against NF-κB activation was measured by referring to the method of Hill et al. (Cell, (USA), in 1993, Vol. 73, No. 2, p. 395-406). Using a transfection reagent(Effectene; QIAGEN), the human hepatoma cell strain HepG2 was transfected with a plasmid (pNFκ Luc Reporter Plasmid; STRATAGENE) integrated with an oligonucleotide having five tandem copies of NF-κB binding sequences(TGGGGACTTTCCGC) on a upstream region of firefly luciferase gene (Luc) according to the QIAGEN's protocol, and the cells were incubated for 6 to 24 hours. Then the cells were cultured for 4 hours after the addition of TNF-α (40 ng/ml) in the presence of a test compound, and intracellular luciferase activity was measured by using PicaGene LT (TOYO INK MFG Co., Ltd.) and a chemical luminescence measurement apparatus(SPECTRAFluor Plus; TECAN). The inhibitory ratio was measured as a ratio relative to a value of the luciferase activity in the absence of the test compound.

SMILES | inhibition at 1 µg/mL (Drug Concentration 1 μg/mL) [%] | inhibition at 10 µg/mL (Drug Concentration 10 μg/mL) [%] | Inhibitory Ratio of NF-κ B Activation(%) (Drug Concentration 1 μg/mL) | Inhibitory Ratio of NF-κ B Activation(%) (Drug Concentration 10 μg/mL)
O=C(Nc1cc(C(F)(F)F)cc(C(F)(F)F)c1)c1cc(Cl)ccc1OP(=O)(OCc1ccccc1)OCc1ccccc1 [Compound 50, 5-chloro-2-(dibenzylphosphono)oxy-N-[3,5-bis(trifluoromethyl)phenyl]benzamide] | 90.7 | 97.1 | – | –
CN1CCN(C(=O)Oc2ccc(Cl)cc2C(=O)Nc2cc(C(F)(F)F)cc(C(F)(F)F)c2)CC1 [Compound 72] | – | – | 39.4 | 35.2
CC(C)C[C@H](NC(=O)[C@@H](N)CCCCN)C(=O)Oc1ccc(Cl)cc1C(=O)Nc1cc(C(F)(F)F)cc(C(F)(F)F)c1.Cl.Cl [Compound 40] | – | – | 96.2 | 97.5
CC(C)C[C@H](NC(=O)[C@@H](N)Cc1ccccc1)C(=O)Oc1ccc(Cl)cc1C(=O)Nc1cc(C(F)(F)F)cc(C(F)(F)F)c1.Cl [Compound 36] | – | – | 97.8 | 98.7
COc1ccccc1NC(=O)c1cc2cc(Br)ccc2cc1OP(=O)(O)O [Compound 53] | – | – | 21.5 | 92.0
CC(C)(C)C(=O)c1sc(NC(=O)c2cc(Cl)ccc2OP(=O)([O-])O)nc1C(C)(C)C.[Na+] [Compound 128] | – | – | >99.9 | >99.9
O=C(Nc1cc(C(F)(F)F)cc(C(F)(F)F)c1)c1cc(Cl)ccc1OCOC(=O)N1CCC(C(=O)O)CC1 [Compound 104] | – | – | 48.4 | 58.8
COC(=O)C1Oc2ccc(Cl)cc2C(=O)N1c1cc(C(F)(F)F)cc(C(F)(F)F)c1 (centres unmarked) [Compound 115, 6-chloro-3,4-dihydro-4-oxo-3-[3,5-bis(trifluoromethyl)phenyl]-2H-1,3-benzoxazine-2-carboxylic acid methyl ester] | 41.8 | 92.2 | – | –
O=C(Cc1ccccc1)Oc1ccc(Cl)cc1C(=O)Nc1cc(C(F)(F)F)cc(C(F)(F)F)c1 [Compound 8] | – | – | 95.0 | 97.9
COC(=O)[C@H](Cc1ccccc1)NC(=O)Oc1ccc(Cl)cc1C(=O)Nc1cc(C(F)(F)F)cc(C(F)(F)F)c1 [Compound 59] | – | – | 96.2 | 97.8
O=C(Nc1cc(C(F)(F)F)ccc1C(F)(F)F)c1cc(Cl)ccc1OP(=O)([O-])O.[Na+] [Compound 122] | – | – | >99.9 | >99.9
CCC(C)(C)c1ccc(Oc2ccccc2)c(-n2c(=O)oc3ccc(Cl)cc3c2=O)c1 [Compound 118, 6-Chloro-3-[5-(1,1-dimethyl)propyl-2-phenoxyphenyl]-3,4-dihydro-2H-1,3-benzoxazine-2,4-dione] | 94 | 97.4 | – | –
Cc1ccc(S(=O)(=O)Oc2ccc(Cl)cc2C(=O)Nc2cc(C(F)(F)F)cc(C(F)(F)F)c2)cc1 [Compound 47] | – | – | 84.7 | 92.5
CCN(CC)C(=O)Oc1ccc(Cl)cc1C(=O)Nc1cc(C(F)(F)F)cc(C(F)(F)F)c1 [Compound 68] | – | – | 53.0 | 47.4
CC(C)C[C@H](NC(=O)[C@@H](N)CC(=O)O)C(=O)Oc1ccc(Cl)cc1C(=O)Nc1cc(C(F)(F)F)cc(C(F)(F)F)c1.Cl [Compound 38] | – | – | 97.8 | 98.6
N[C@@H](CCC(=O)O)C(=O)Oc1ccc(Cl)cc1C(=O)Nc1cc(C(F)(F)F)cc(C(F)(F)F)c1 [Compound 32] | – | – | 98.0 | 98.8
O=C(NCc1ccccc1)Oc1ccc(Cl)cc1C(=O)Nc1cc(C(F)(F)F)cc(C(F)(F)F)c1 [Compound 55] | – | – | 97.1 | 99.1
CC(C)(C)C(=O)Oc1ccc(Cl)cc1C(=O)Nc1cc(C(F)(F)F)cc(C(F)(F)F)c1 [Compound 1, 5-Chloro-2-pivaloyloxy-N-[3,5-bis(trifluoromethyl)phenyl]benzamide] | 94.9 | 95.8 | – | –
N[C@@H](CC(=O)O)C(=O)N[C@@H](Cc1ccccc1)C(=O)Oc1ccc(Cl)cc1C(=O)Nc1cc(C(F)(F)F)cc(C(F)(F)F)c1 [Compound 42, 2-[N-(α-L-aspartyl)-L-phenylalanyl]oxy-5-chloro-N-[3,5-bis(trifluoromethyl)-phenyl]benzamide hydrochloride] | 92.7 | 96.9 | – | –

SMILES | inhibition at 1 µg/mL (Drug Concentration 1 μg/mL) [%] | inhibition at 10 µg/mL (Drug Concentration 10 μg/mL) [%] | Inhibitory Ratio of NF-κ B Activation(%) (Drug Concentration 1 μg/mL) | Inhibitory Ratio of NF-κ B Activation(%) (Drug Concentration 10 μg/mL)
O=C(Oc1ccc(Cl)cc1C(=O)Nc1cc(C(F)(F)F)cc(C(F)(F)F)c1)c1ccccc1 [Compound 4] | – | – | 94.2 | 97.5
CN(C(=O)Oc1ccc(Cl)cc1C(=O)Nc1cc(C(F)(F)F)cc(C(F)(F)F)c1)c1ccccc1 [Compound 69] | – | – | 29.7 | 18.7
CS(=O)(=O)Oc1ccc(Cl)cc1C(=O)Nc1cc(C(F)(F)F)cc(C(F)(F)F)c1 [Compound 44] | – | – | 85.9 | 98.6
CC(C)[C@H](N)C(=O)Oc1ccc(Cl)cc1C(=O)Nc1cc(C(F)(F)F)cc(C(F)(F)F)c1.Cl [Compound 25] | – | – | 93.4 | 97.2
CC(C)(C)C(=O)OCOc1ccc(Cl)cc1C(=O)Nc1cc(C(F)(F)F)cc(C(F)(F)F)c1 [Compound 99] | – | – | 92.3 | 94.7
Cl.N[C@@H](Cc1ccccc1)C(=O)Oc1ccc(Cl)cc1C(=O)Nc1cc(C(F)(F)F)cc(C(F)(F)F)c1 [Compound 29] | – | – | 90.2 | 97.5
O=C(Nc1ccc(-c2ccccc2)cc1)c1cc(C(F)(F)F)ccc1OC(=O)N1CCOCC1 [Compound 119] | – | – | >99.9 | >99.9
CC(C)(C)OC(=O)N[C@@H](Cc1ccccc1)C(=O)Oc1ccc(Cl)cc1C(=O)Nc1cc(C(F)(F)F)cc(C(F)(F)F)c1 [Compound 28, 2-[N-(tert-butoxycarbonyl)-L-phenylalanyl]oxy-5-chloro-N-[3,5-bis(trifluoromethyl)-phenyl]benzamide] | 96.4 | 98.4 | – | –
CC(C)(C)OC(=O)NCC(=O)Oc1ccc(Cl)cc1C(=O)Nc1cc(C(F)(F)F)cc(C(F)(F)F)c1 [Compound 22, 2-[N-(tert-butoxycarbonyl)glycyl]oxy-5-chloro-N-[3,5-bis(trifluoromethyl)phenyl]-benzamide] | 35.3 | 98.7 | – | –
O=C(Nc1cc(C(F)(F)F)ccc1Cl)c1cc(Br)ccc1OC(=O)N1CCOCC1 [Compound 85, 5-Bromo-N-[2-chloro-5-(trifluoromethyl)phenyl]-2-[(morpholinocarbonyl)oxy]-benzamide] | 21.4 | 29.8 | – | –
O=C(Oc1ccccc1C(=O)Nc1cc(C(F)(F)F)ccc1C(F)(F)F)c1ccccc1O [Compound 131] | – | – | >99.9 | –
CCOC(=O)CN(CC(=O)OCC)C(=O)OCOc1ccc(Cl)cc1C(=O)Nc1cc(C(F)(F)F)cc(C(F)(F)F)c1 [Compound 105, 2-({N,N-bis[(ethoxycarbonyl)methyl]carbamoyl}oxy)methoxy-5-chloro-N-[3,5-bis(trifluoromethyl)phenyl]benzamide] | 71.8 | 56 | – | –
COc1cc(NC(=O)c2cc(Br)ccc2OP(=O)([O-])O)cc(C(F)(F)F)c1.[Na+] [Compound 149] | – | – | >99.9 | –
CC(=O)Oc1ccccc1C(=O)Oc1ccc(Cl)cc1C(=O)Nc1cc(C(F)(F)F)cc(C(F)(F)F)c1 [Compound 5] | – | – | 96.1 | 98.0
O=C(Nc1cc(C(F)(F)F)cc(C(F)(F)F)c1)c1cc(Cl)ccc1OP(=O)([O-])O.[Na+] [Compound 52] | – | – | 76.3 | 96.5
O=C(Nc1cc(C(F)(F)F)cc(C(F)(F)F)c1)c1cc(Cl)ccc1OP(=O)(O)O [Compound 51, 5-chloro-2-phosphonooxy-N-[3,5-bis(trifluoromethyl)phenyl]benzamide] | 89.7 | 96.6 | – | –
CC(C)[C@H](NC(=O)OC(C)(C)C)C(=O)Oc1ccc(Cl)cc1C(=O)Nc1cc(C(F)(F)F)cc(C(F)(F)F)c1 [Compound 24, 2-[N-(tert-butoxycarbonyl)-L-valyl]oxy-5-chloro-N-[3,5-bis(trifluoromethyl)phenyl]-benzamide] | 96.3 | 96.8 | – | –
CC(=O)OCC(=O)Oc1ccc(Cl)cc1C(=O)Nc1cc(C(F)(F)F)cc(C(F)(F)F)c1 [Compound 11] | – | – | 97.3 | 99.2
O=C(Nc1cc(C(F)(F)F)cc(C(F)(F)F)c1)c1cc(Cl)ccc1OC(=O)N1CCCC1 [Compound 70] | – | – | 48.1 | 89.6
